Molecular target: T1, N-formyl peptide receptor 2 (Homo sapiens, UniProt P25090)
T1 sequence (P25090 whole entry): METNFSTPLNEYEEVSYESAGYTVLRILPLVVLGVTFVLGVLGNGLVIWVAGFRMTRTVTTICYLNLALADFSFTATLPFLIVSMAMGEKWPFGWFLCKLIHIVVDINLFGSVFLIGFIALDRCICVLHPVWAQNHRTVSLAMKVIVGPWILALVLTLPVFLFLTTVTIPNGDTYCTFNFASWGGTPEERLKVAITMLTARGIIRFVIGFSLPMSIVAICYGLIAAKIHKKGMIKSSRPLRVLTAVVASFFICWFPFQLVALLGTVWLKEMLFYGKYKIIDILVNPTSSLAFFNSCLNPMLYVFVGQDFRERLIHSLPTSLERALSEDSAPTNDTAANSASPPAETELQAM
Experiment: concentration-dependent FPRL1 ligand displacement – cell-based, FPR counter-screen, fluorescent ligand, dose response (AID 520)

**Q.** With `O=C(NCCN1CCOCC1)NC1(C(F)(F)F)Oc2ccc(Cl)cc2O1` (centres undefined) as the compound, how does the IC50 read?
**A.** > 66.7 µM

**Q.** With `CCn1cc(C(=O)NC2CCC(C)CC2)c(=O)c2cc(S(=O)(=O)N3CCCCC3)ccc21` (centres undefined) as the compound, how does the IC50 read?
**A.** > 66.7 µM

**Q.** For `O=c1c2c(nc3c(-c4ccc(Cl)cc4)c[nH]n13)CCCC2`, which IC50 is on record?
**A.** > 66.7 µM

**Q.** `CCOC(=O)Cc1cc(=O)n2[nH]c(C)c(-c3ccccc3)c2n1` was tested. Which IC50 did it give?
**A.** > 66.7 µM

**Q.** For `N[C@@H](Cc1ccc(O)c(I)c1)C(=O)O`, which IC50 is on record?
**A.** > 66.7 µM

**Q.** With `COC(=O)c1[nH]c(C)c(C(=O)C2C(=O)C(=O)N(CCN3CCOCC3)C2c2cccs2)c1C` (centres undefined) as the compound, how does the IC50 read?
**A.** > 66.7 µM

**Q.** What about the Ki of the same compound?
**A.** > 40.3 µM

**Q.** With `CCCc1cc(=O)n2[nH]c(C)c(-c3ccccc3)c2n1` as the compound, how does the IC50 read?
**A.** > 66.7 µM

**Q.** Which IC50 does the source give for `CC1=NC(C)=C(C#N)C(c2ccc3ncccc3c2)C1C#N` (centres undefined) here?
**A.** > 66.7 µM

**Q.** And the Ki?
**A.** > 40.3 µM

**Q.** With `O=C(NC1CCCC1)c1sc(=S)n2c1[nH]c(=O)c1ccccc12` as the compound, how does the IC50 read?
**A.** > 66.7 µM

**Q.** With `CC(C)OC(=O)c1cc(NC(=O)C2C3CCC(O3)C2C(=O)O)cc(C(=O)OC(C)C)c1` (centres undefined) as the compound, how does the IC50 read?
**A.** > 66.7 µM

**Q.** `CCN(C(=O)Cc1c(C(=O)O)[nH]c2ccccc12)c1cc(OC)ccc1OC` was tested. Which IC50 did it give?
**A.** > 66.7 µM

**Q.** With `CCOC(=O)Cc1cc(=O)n2[nH]c(C)c(-c3ccc(OC)cc3)c2n1` as the compound, how does the IC50 read?
**A.** > 66.7 µM

**Q.** How did the IC50 turn out when `CCOC(=O)c1oc2cc(O)ccc2c(=O)c1-c1ccccc1OC` was run?
**A.** > 66.7 µM

**Q.** With `Cc1nc2c(C#N)c(C)[nH]n2c(=O)c1Cc1ccccc1` as the compound, how does the IC50 read?
**A.** > 66.7 µM

**Q.** For `CCOC(=O)c1c(-c2ccc(-c3ccccc3)cc2)csc1NC(=O)C1C2CCC(O2)C1C(=O)O` (centres undefined), which IC50 is on record?
**A.** > 66.7 µM

**Q.** Which IC50 does the source give for `Nc1ccc(Nc2ccccc2)cc1` here?
**A.** > 66.7 µM

**Q.** With `O=c1c(CC[S+]([O-])c2ccccc2)c(O)n(-c2ccccc2)n1-c1ccccc1` (centres undefined) [1,2-Diphenyl-3,5-dioxo-4-(2-phenylsulfinylethyl)pyrazolidine] as the compound, how does the IC50 read?
**A.** > 66.7 µM

**Q.** And the Ki?
**A.** > 40.3 µM

**Q.** Which IC50 does the source give for `COC(=O)C1(S(=O)(=O)c2cccc3nsnc23)CC1` [1-(2,1,3-benzothiadiazol-4-ylsulfonyl)-1-cyclopropanecarboxylic acid methyl ester] here?
**A.** > 66.7 µM

**Q.** Which results are given for `COc1cccc2cc(C(=O)C3C(=O)C(=O)N(Cc4ccco4)C3c3cccnc3)oc12` (centres undefined) [1-(2-furanylmethyl)-4-hydroxy-3-[(7-methoxy-2-benzofuranyl)-oxomethyl]-2-(3-pyridinyl)-2H-pyrrol-5-one]?
**A.** IC50: > 66.7 µM; Ki: > 40.3 µM

**Q.** With `COc1cc(C2C(C(=O)c3cccs3)C(=O)C(=O)N2Cc2ccco2)cc(OC)c1OC` (centres undefined) [1-(2-furanylmethyl)-4-hydroxy-3-[oxo(thiophen-2-yl)methyl]-2-(3,4,5-trimethoxyphenyl)-2H-pyrrol-5-one] as the compound, how does the IC50 read?
**A.** > 66.7 µM

**Q.** What about the Ki of the same compound?
**A.** > 40.3 µM

**Q.** With `O=C1C(=O)N(Cc2ccco2)C(c2ccccc2)C1C(=O)c1cccs1` (centres undefined) [1-(2-furanylmethyl)-4-hydroxy-3-[oxo(thiophen-2-yl)methyl]-2-phenyl-2H-pyrrol-5-one] as the compound, how does the IC50 read?
**A.** > 66.7 µM

**Q.** And the Ki?
**A.** > 40.3 µM

**Q.** Which results are given for `COCCN1C(=O)C(=O)C(C(=O)c2cccs2)C1c1ccccc1` (centres undefined) [1-(2-methoxyethyl)-4-oxidanyl-2-phenyl-3-thiophen-2-ylcarbonyl-2H-pyrrol-5-one]?
**A.** IC50: > 66.7 µM; Ki: > 40.3 µM

**Q.** How did the IC50 turn out when `O=C1C(=O)N(CCN2CCOCC2)C(c2ccccc2)C1C(=O)c1cccs1` (centres undefined) [1-(2-morpholin-4-ylethyl)-4-oxidanyl-2-phenyl-3-thiophen-2-ylcarbonyl-2H-pyrrol-5-one] was run?
**A.** > 66.7 µM

**Q.** And the Ki?
**A.** > 40.3 µM

**Q.** For `CCC(NC(=O)Nc1cc(OC)c(OC)c(OC)c1)(C(F)(F)F)C(F)(F)F` [1-(3,4,5-trimethoxyphenyl)-3-[1,1,1-tris(fluoranyl)-2-(trifluoromethyl)butan-2-yl]urea], which IC50 is on record?
**A.** > 66.7 µM

**Q.** With `Cc1ccc(C(=O)C2C(=O)C(=O)N(CCCn3ccnc3)C2c2ccc(OC(C)C)cc2)o1` (centres undefined) [1-(3-imidazol-1-ylpropyl)-3-(5-methylfuran-2-yl)carbonyl-4-oxidanyl-2-(4-propan-2-yloxyphenyl)-2H-pyrrol-5-one] as the compound, how does the IC50 read?
**A.** > 66.7 µM

**Q.** What about the Ki of the same compound?
**A.** > 40.3 µM

**Q.** How did the IC50 turn out when `CCCOc1ccc(C2C(C(=O)c3ccc(C)o3)C(=O)C(=O)N2CCCn2ccnc2)cc1` (centres undefined) [1-(3-imidazol-1-ylpropyl)-3-(5-methylfuran-2-yl)carbonyl-4-oxidanyl-2-(4-propoxyphenyl)-2H-pyrrol-5-one] was run?
**A.** > 66.7 µM

**Q.** What about the Ki of the same compound?
**A.** > 40.3 µM

**Q.** With `CC(C)OC(=O)c1nnn(-c2nonc2N)c1CN1CCc2ccccc2C1` [1-(4-amino-1,2,5-oxadiazol-3-yl)-5-(3,4-dihydro-1H-isoquinolin-2-ylmethyl)-4-triazolecarboxylic acid propan-2-yl ester] as the compound, how does the IC50 read?
**A.** > 66.7 µM

**Q.** Which IC50 does the source give for `CCCN=C(S)Nc1ccc(Nc2ccccc2)cc1` [1-(4-anilinophenyl)-3-propyl-thiourea] here?
**A.** > 66.7 µM

**Q.** How did the IC50 turn out when `CCOC(=O)C1CCN(Cc2ccc(C(=O)OC)cc2)CC1` [1-(4-carbomethoxybenzyl)isonipecotic acid ethyl ester] was run?
**A.** > 66.7 µM

**Q.** What does the source list for `C=CCOc1ccc(C2C(C(=O)c3cccs3)C(=O)C(=O)N2c2nnc(C)s2)cc1` (centres undefined) [1-(5-methyl-1,3,4-thiadiazol-2-yl)-4-oxidanyl-2-(4-prop-2-enoxyphenyl)-3-thiophen-2-ylcarbonyl-2H-pyrrol-5-one]?
**A.** IC50: > 66.7 µM; Ki: > 40.3 µM

**Q.** How did the IC50 turn out when `O=C1C(=O)N(Cc2ccccc2)C(c2cccnc2)C1C(=O)c1ccco1` (centres undefined) [1-Benzyl-4-(furan-2-carbonyl)-3-hydroxy-5-pyridin-3-yl-1,5-dihydro-pyrrol-2-one] was run?
**A.** > 66.7 µM

**Q.** And the Ki?
**A.** > 40.3 µM

**Q.** Which IC50 does the source give for `O=C1C(=O)N(Cc2ccccc2)C(c2ccncc2)C1C(=O)c1ccco1` (centres undefined) [1-Benzyl-4-(furan-2-carbonyl)-3-hydroxy-5-pyridin-4-yl-1,5-dihydro-pyrrol-2-one] here?
**A.** > 66.7 µM

**Q.** What about the Ki of the same compound?
**A.** > 40.3 µM

**Q.** Which IC50 does the source give for `O=C1C(=O)N(Cc2ccccc2)C(c2ccco2)C1C(=O)c1ccco1` (centres undefined) [1-Benzyl-4-(furan-2-carbonyl)-5-furan-2-yl-3-hydroxy-1,5-dihydro-pyrrol-2-one] here?
**A.** > 66.7 µM

**Q.** And the Ki?
**A.** > 40.3 µM

**Q.** Which IC50 does the source give for `O=C1C(=O)N(CCOCCO)C(c2cccs2)C1C(=O)c1cccs1` (centres undefined) [1-[2-(2-hydroxyethyloxy)ethyl]-4-oxidanyl-2-thiophen-2-yl-3-thiophen-2-ylcarbonyl-2H-pyrrol-5-one] here?
**A.** > 66.7 µM

**Q.** And the Ki?
**A.** > 40.3 µM

**Q.** Which results are given for `COc1ccc(CCN2C(=O)C(=O)C(C(=O)c3ccco3)C2c2cccs2)cc1OC` (centres undefined) [1-[2-(3,4-Dimethoxy-phenyl)-ethyl]-4-(furan-2-carbonyl)-3-hydroxy-5-thiophen-2-yl-1,5-dihydro-pyrrol-2-one]?
**A.** IC50: > 66.7 µM; Ki: > 40.3 µM

**Q.** How did the IC50 turn out when `OCc1nc2ccccc2n1CC(O)Cn1ccc2ccccc21` (centres undefined) [1-[2-(hydroxymethyl)-1-benzimidazolyl]-3-(1-indolyl)-2-propanol] was run?
**A.** > 66.7 µM

**Q.** How did the IC50 turn out when `COc1ccc2nc(Nc3nc(C)c(C(C)=O)s3)sc2c1` [1-[2-[(6-methoxy-1,3-benzothiazol-2-yl)amino]-4-methyl-1,3-thiazol-5-yl]ethanone] was run?
**A.** > 66.7 µM

**Q.** `CN1CCN(CCCNC(=O)Nc2cccc3ccccc23)CC1` [1-[3-(4-methyl-1-piperazinyl)propyl]-3-(1-naphthalenyl)urea] was tested. Which IC50 did it give?
**A.** > 66.7 µM

**Q.** Which IC50 does the source give for `C=CCn1c(SCCCC)nc(O)cc1=O` [1-allyl-2-(butylthio)-6-hydroxy-pyrimidin-4-one] here?
**A.** > 66.7 µM

**Q.** How did the IC50 turn out when `Cc1c(CNCc2cccs2)c(C(=O)O)c(C)n1Cc1ccccc1` [1-benzyl-2,5-dimethyl-4-[(2-thenylamino)methyl]pyrrole-3-carboxylic acid] was run?
**A.** > 66.7 µM

**Q.** How did the IC50 turn out when `Cc1ccc(C(=O)C2C(=O)C(=O)N(Cc3ccccc3)C2c2cccnc2)o1` (centres undefined) [1-benzyl-3-hydroxy-4-[(5-methylfuran-2-yl)carbonyl]-5-(pyridin-3-yl)-2,5-dihydro-1H-pyrrol-2-one] was run?
**A.** > 66.7 µM

**Q.** And the Ki?
**A.** > 40.3 µM

**Q.** Which IC50 does the source give for `Cc1cccc(Nc2ccccc2C(=O)NCc2ccco2)c1C` [2-(2,3-dimethylanilino)-N-(2-furanylmethyl)benzamide] here?
**A.** > 66.7 µM

**Q.** What does the source list for `COc1ccc(OC)c(C2C(C(=O)c3cccs3)C(=O)C(=O)N2c2cc(C)on2)c1` (centres undefined) [2-(2,5-dimethoxyphenyl)-1-(5-methyl-1,2-oxazol-3-yl)-4-oxidanyl-3-thiophen-2-ylcarbonyl-2H-pyrrol-5-one]?
**A.** IC50: > 66.7 µM; Ki: > 40.3 µM

**Q.** `COc1ccc(OC)c(C2C(C(=O)c3ccco3)C(=O)C(=O)N2CCCN2CCOCC2)c1` (centres undefined) [2-(2,5-dimethoxyphenyl)-3-(furan-2-carbonyl)-4-hydroxy-1-(3-morpholin-4-ylpropyl)-2H-pyrrol-5-one] was tested. Which IC50 did it give?
**A.** > 66.7 µM

**Q.** And the Ki?
**A.** > 40.3 µM

**Q.** With `CCCOc1ccc2c(=O)c(N3C(=O)c4ccccc4C3=O)c(C)oc2c1` [2-(2-methyl-4-oxidanylidene-7-propoxy-chromen-3-yl)isoindole-1,3-dione] as the compound, how does the IC50 read?
**A.** > 66.7 µM

**Q.** What does the source list for `O=C1C(=O)N(c2ncccn2)C(c2ccc(Cl)c(Cl)c2)C1C(=O)c1ccco1` (centres undefined) [2-(3,4-dichlorophenyl)-3-(furan-2-carbonyl)-4-hydroxy-1-pyrimidin-2-yl-2H-pyrrol-5-one]?
**A.** IC50: > 66.7 µM; Ki: > 40.3 µM

**Q.** `COc1ccc(C2C(C(=O)c3cccs3)C(=O)C(=O)N2c2nnc(C)s2)cc1OC` (centres undefined) [2-(3,4-dimethoxyphenyl)-1-(5-methyl-1,3,4-thiadiazol-2-yl)-4-oxidanyl-3-thiophen-2-ylcarbonyl-2H-pyrrol-5-one] was tested. Which IC50 did it give?
**A.** > 66.7 µM

**Q.** And the Ki?
**A.** > 40.3 µM

**Q.** For `COc1ccc(C2C(C(=O)c3ccco3)C(=O)C(=O)N2CCc2ccccc2)cc1OC` (centres undefined) [2-(3,4-dimethoxyphenyl)-3-(furan-2-carbonyl)-4-hydroxy-1-(2-phenylethyl)-2H-pyrrol-5-one], which IC50 is on record?
**A.** > 66.7 µM

**Q.** What about the Ki of the same compound?
**A.** > 40.3 µM

**Q.** What does the source list for `COc1ccc(C2C(C(=O)c3ccco3)C(=O)C(=O)N2Cc2cccnc2)cc1OC` (centres undefined) [2-(3,4-dimethoxyphenyl)-3-(furan-2-carbonyl)-4-hydroxy-1-(pyridin-3-ylmethyl)-2H-pyrrol-5-one]?
**A.** IC50: > 66.7 µM; Ki: > 40.3 µM

**Q.** Which results are given for `COc1cc(C2C(C(=O)c3ccco3)C(=O)C(=O)N2c2cc(C)on2)cc(Br)c1O` (centres undefined) [2-(3-bromanyl-5-methoxy-4-oxidanyl-phenyl)-3-(furan-2-ylcarbonyl)-1-(5-methyl-1,2-oxazol-3-yl)-4-oxidanyl-2H-pyrrol-5-one]?
**A.** IC50: > 66.7 µM; Ki: > 40.3 µM

From BindingDB's records for doi:10.7270/Q2DF6PMF (Nmmlsc, 2007)
